Biological target: T1, VEGF receptor KDR (Homo sapiens, UniProt P35968)
T1 construct: made in house; host or cells: Sf9 cells (Spodoptera frugiperda), baculovirus
Experiment: In vitro receptor tyrosine kinase assay (DELFIA), VEGF receptor KDR
Type: biochemical
Settings: GST-VEGFR2 806-1356, 0.6 uM ATP; read-out: VEGFR IC50
From the text: In the case of VEGF receptor KDR a 1.6-kb cDNA corresponding to the catalytic domain of VEGFR2 or KDR (Genbank accession number AF035121 amino acid 806 to 1356) is cloned into the Pst I site of the pDEST20 Gateway vector (Invitrogen) for the production of a GST-tagged version of that enzyme.
The GST-VEGFR2806-1356 protein is expressed in Sf9 cells (Spodoptera frugiperda) upon infection with recombinant baculovirus construct.
The supernatant is loaded onto a GST-agarose column (Sigma) equilibrated with PBS pH 7.3. Following a four column volume (CV) wash with PBS pH 7.3+1% Triton X-100 and 4 CV wash with buffer B (50 mM Tris pH 8.0, 20% glycerol and 100 mM NaCl), bound proteins are step eluted with 5 CV of buffer B supplemented with 5 mM DTT and 15 mM glutathion. […] Final GST-VEGFR2806-1356 protein preparations concentrations are about 0.7 mg/ml with purity approximating 70%.

T1 sequence (P35968 806-1356): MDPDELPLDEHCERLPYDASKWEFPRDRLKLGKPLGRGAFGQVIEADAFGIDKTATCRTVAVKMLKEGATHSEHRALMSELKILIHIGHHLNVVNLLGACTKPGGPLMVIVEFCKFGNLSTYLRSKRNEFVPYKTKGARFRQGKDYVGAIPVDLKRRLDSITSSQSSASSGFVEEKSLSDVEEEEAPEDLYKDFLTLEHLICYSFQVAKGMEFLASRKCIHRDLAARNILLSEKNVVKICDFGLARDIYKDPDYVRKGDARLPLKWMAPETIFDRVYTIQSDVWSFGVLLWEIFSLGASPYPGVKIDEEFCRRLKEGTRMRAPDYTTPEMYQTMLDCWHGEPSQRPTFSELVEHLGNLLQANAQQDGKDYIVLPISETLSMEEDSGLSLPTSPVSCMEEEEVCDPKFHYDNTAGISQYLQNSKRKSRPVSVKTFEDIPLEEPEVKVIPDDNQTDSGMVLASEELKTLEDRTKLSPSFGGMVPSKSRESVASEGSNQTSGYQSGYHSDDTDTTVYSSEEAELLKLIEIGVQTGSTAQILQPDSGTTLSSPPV

| Compound | IC50 |
| --- | --- |
| COCCNCc1ccc(-c2cc3nccc(Oc4ccc(NC(=S)NC(=O)Cc5ccccc5)cc4F)c3s2)s1 | < 250 nM |
| COC[C@H](C)NCc1ccc(-c2cc3nccc(Oc4ccc(NC(=O)C5(C(=O)Nc6ccccc6)CC5)cc4F)c3s2)cc1 | < 250 nM |
| COCCNCCc1cccc(-c2cc3nccc(Oc4ccc(NC(=S)NC(=O)Cc5ccc(F)cc5)cc4F)c3s2)c1 | < 250 nM |
| COCCNCCn1cnc(-c2cc3nccc(Oc4ccc(NC(=S)NC(=O)Cc5ccccc5)cc4F)c3s2)c1 | < 250 nM |

Further lines, results first:

| IC50 | Compound |
| --- | --- |
| < 250 nM | CSCCNCc1ccc(-c2cc3nccc(Oc4ccc(NC(=S)NC(=O)Cc5ccccc5)cc4F)c3s2)cc1 |
| < 250 nM | CSCCNCc1ccc(-c2cc3nccc(Oc4ccc(NC(=S)NC(=O)Cc5ccc(F)cc5)cc4F)c3s2)cc1 |

Tested on: A549 cells
Experiment: Wound healing assay in A549 cells (HGF-stimulated)
Type: cell-based
Settings: Homo sapiens, last dose that inhibited gap closing by more than 25%, 24 h, read-out: A549 WOUND_HEALING IC50
Experimental: Wound healing assay in A549 cells. A549 cells (ATCC) are seeded in DMEM low glucose medium complemented with 10% FBS into 24-well plates at a density of 7.5×10^4 cells/well and grown to confluence (48 h). Inhibitors were added to the medium at a range of doses (0.00032-10 uM) for 3 h at which point a gap is introduced by scraping cells with a P1000 pipette tip. Cells are then stimulated to migrate by the addition of HGF (in the form of conditioned medium from 293T cells over-expressing the human HGF gene) and the culture is continued for 24 h. […] For the purpose of standardization, a control is carried on every assay plates.

| Compound | IC50 |
| --- | --- |
| COCCNCc1ccc(-c2cc3nccc(Oc4ccc(NC(=S)NC(=O)Cc5ccccc5)cc4F)c3s2)s1 | > 1000 nM |
| COC[C@H](C)NCc1ccc(-c2cc3nccc(Oc4ccc(NC(=O)C5(C(=O)Nc6ccccc6)CC5)cc4F)c3s2)cc1 | < 250 nM |
| COCCNCCc1cccc(-c2cc3nccc(Oc4ccc(NC(=S)NC(=O)Cc5ccc(F)cc5)cc4F)c3s2)c1 | 250 to 500 nM |
| COCCNCCn1cnc(-c2cc3nccc(Oc4ccc(NC(=S)NC(=O)Cc5ccccc5)cc4F)c3s2)c1 | < 250 nM |

The remaining lines, values ahead:

| IC50 | Compound |
| --- | --- |
| 250 to 500 nM | CSCCNCc1ccc(-c2cc3nccc(Oc4ccc(NC(=S)NC(=O)Cc5ccccc5)cc4F)c3s2)cc1 |
| > 1000 nM | CSCCNCc1ccc(-c2cc3nccc(Oc4ccc(NC(=S)NC(=O)Cc5ccc(F)cc5)cc4F)c3s2)cc1 |

Tested on: DU145 cells
Experiment: Scatter assay in DU145 cells (HGF-stimulated)
Type: cell-based
Settings: Homo sapiens, DU-145, last dose that created an inhibitory effect on scattering, 24 h, read-out: DU145 SCATT. INHIB IC50
Experimental: Scatter assays in DU145. The scatter assay is performed as described previously (Miura H, Nishimura K, Tsujimura A, Matsumiya K, Matsumoto K, Nakamura T, et al. Effects of hepatocyte growth factor on E-cadherin-mediated cell-cell adhesion in DU145 prostate cancer cells. Urology 2001; 58(6):1064-9) for DU145 prostate carcinoma cells with the indicated modifications. In brief, DU145 cells (ATCC) are seeded in 24-well plates at a density of 7×10^3 cells/well in MEM medium complemented with 10% FBS and cultured for 48 h, to allow the formation of small compact colonies of cells. Inhibitors are subsequently added at a range of doses (0.00032-10 uM) for 3 h. Cells are then stimulated to migrate by the addition of HGF (in the form of conditioned medium from 293T cells over-expressing the human HGF gene) and the culture is continued for another 24 h. The IC50 values is defined as the last dose that created an inhibitory effect on scattering. For the purpose of standardization a control is carried on every test plates for the DU145 scattering assays.

| Compound | IC50 |
| --- | --- |
| COCCNCc1ccc(-c2cc3nccc(Oc4ccc(NC(=S)NC(=O)Cc5ccccc5)cc4F)c3s2)s1 | 250 to 500 nM |
| COC[C@H](C)NCc1ccc(-c2cc3nccc(Oc4ccc(NC(=O)C5(C(=O)Nc6ccccc6)CC5)cc4F)c3s2)cc1 | < 250 nM |
| COCCNCCc1cccc(-c2cc3nccc(Oc4ccc(NC(=S)NC(=O)Cc5ccc(F)cc5)cc4F)c3s2)c1 | < 250 nM |
| COCCNCCn1cnc(-c2cc3nccc(Oc4ccc(NC(=S)NC(=O)Cc5ccccc5)cc4F)c3s2)c1 | < 250 nM |

The next lines start with the values.

| IC50 | Compound |
| --- | --- |
| 250 to 500 nM | CSCCNCc1ccc(-c2cc3nccc(Oc4ccc(NC(=S)NC(=O)Cc5ccccc5)cc4F)c3s2)cc1 |
| 250 to 500 nM | CSCCNCc1ccc(-c2cc3nccc(Oc4ccc(NC(=S)NC(=O)Cc5ccc(F)cc5)cc4F)c3s2)cc1 |

Biological target: T2, c-Met (Homo sapiens, UniProt P08581)
T2 construct: endogenous in cells; host or cells: MKN45 gastric carcinoma cells
T2 sequence (P08581 25-1390): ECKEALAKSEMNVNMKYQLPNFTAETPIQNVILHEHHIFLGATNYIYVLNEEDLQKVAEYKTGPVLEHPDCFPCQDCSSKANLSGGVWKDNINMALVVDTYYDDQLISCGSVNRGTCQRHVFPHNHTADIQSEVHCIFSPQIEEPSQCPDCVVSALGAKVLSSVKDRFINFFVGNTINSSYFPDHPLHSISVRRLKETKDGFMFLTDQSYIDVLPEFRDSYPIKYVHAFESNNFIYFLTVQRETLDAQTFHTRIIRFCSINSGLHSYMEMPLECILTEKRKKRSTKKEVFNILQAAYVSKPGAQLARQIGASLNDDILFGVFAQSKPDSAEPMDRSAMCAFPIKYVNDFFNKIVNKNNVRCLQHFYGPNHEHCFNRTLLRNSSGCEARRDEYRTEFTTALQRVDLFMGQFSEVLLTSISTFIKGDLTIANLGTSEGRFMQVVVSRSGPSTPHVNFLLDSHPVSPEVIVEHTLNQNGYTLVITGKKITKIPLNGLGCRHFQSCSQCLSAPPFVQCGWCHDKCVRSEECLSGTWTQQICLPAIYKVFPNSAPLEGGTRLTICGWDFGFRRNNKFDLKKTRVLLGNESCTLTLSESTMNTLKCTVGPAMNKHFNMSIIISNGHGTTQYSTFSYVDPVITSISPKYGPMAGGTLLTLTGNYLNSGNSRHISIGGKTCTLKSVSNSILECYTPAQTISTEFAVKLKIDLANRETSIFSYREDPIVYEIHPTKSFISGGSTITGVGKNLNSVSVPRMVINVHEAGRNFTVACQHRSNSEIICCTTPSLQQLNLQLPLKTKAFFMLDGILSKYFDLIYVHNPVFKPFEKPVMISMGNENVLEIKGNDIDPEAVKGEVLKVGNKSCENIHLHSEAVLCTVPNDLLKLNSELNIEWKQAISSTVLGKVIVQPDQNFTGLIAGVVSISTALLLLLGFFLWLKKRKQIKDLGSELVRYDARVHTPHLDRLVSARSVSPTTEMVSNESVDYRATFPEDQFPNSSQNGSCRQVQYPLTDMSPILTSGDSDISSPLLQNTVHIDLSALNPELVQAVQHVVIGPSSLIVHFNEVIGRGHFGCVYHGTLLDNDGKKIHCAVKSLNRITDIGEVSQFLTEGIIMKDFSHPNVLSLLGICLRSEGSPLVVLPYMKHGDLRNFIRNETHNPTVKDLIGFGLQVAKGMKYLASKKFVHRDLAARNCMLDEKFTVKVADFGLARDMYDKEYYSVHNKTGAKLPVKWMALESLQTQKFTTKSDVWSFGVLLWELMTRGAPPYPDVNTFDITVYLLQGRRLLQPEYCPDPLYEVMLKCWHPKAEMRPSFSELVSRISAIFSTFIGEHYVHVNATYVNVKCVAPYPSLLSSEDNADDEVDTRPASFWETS
Experiment: Inhibition of c-Met phosphorylation in MKN45 cells (direct ELISA)
Type: cell-based
Settings: 3 h treatment, read-out: CMET ELISA IN MKN45 IC50
From the text: The following assay is used to determine inhibition of c-Met phosphorylation.
The c-Met receptor is expressed in numerous cancer cell lines derived from tumors of epithelial origin. In MKN45 gastric carcinoma cells the c-Met gene is amplified, resulting in several-fold overexpression of the receptor and its constitutive activation. For this reason constitutively high levels of ERK1/2 are also detected in these cells, independently of HGF-added stimulation (Smolen G A, Sordella R, Muir B, Mohapatra G, Barmettler A, Archibald H, et al. Amplification of MET may identify a subset of cancers with extreme sensitivity to the selective tyrosine kinase inhibitor PHA-665752. Proc Natl Acad Sci USA 2006). We have developed a sensitive method to follow c-Met phosphorylation in these cells. In previous studies with earlier generation c-Met inhibitors, we established that the IC50s for the inhibition of c-Met phosphorylation were identical using this novel ELISA approach and standard western blot procedure, with antibodies directed against the activating autocatalysis tyrosine residues of c-MET (Tyr Y1230-34-35).
Cell treatments: MKN45 cells are seeded into wells of 96-well plates at a density of 3×10^4 cells/well in RPMI medium supplemented with 10% FBS. HA-TPR-RON expressing 293T (clone 18) cells are seeded into wells of 96-well plates at a density of 3×10^4 cells/well in DMEM medium supplemented with 10% FBS. Cells are grown for 48 h prior to treatments with compounds of interest. Inhibitors are added to the medium in triplicate wells at the indicated doses. After 3 h of treatment, media is aspirated and cells are lysed by one freeze-thaw cycle in 50 μL/well hypotonic lysis buffer (25 mM HEPES pH 7.5, 10 mM NaCl with 1 mM 4-(2-aminoethyl)benzenesulfonyl fluoride hydrochloride, 200 μM sodium orthovanadate, 1 mM sodium fluoride, 10 μg/mL of leupeptin, 10 μg/mL of aprotinin/mL, 1 μg/mL of pepstatin and 50 μg/mL Na-p-tosyl-L-lysine chloromethyl ketone hydrochloride.
Detection of phosphorylated c-Met by direct ELISA: Lysate samples (5 μL) from wells of treatment plates are transferred to 80 μL of binding buffer (25 mM HEPES pH 7.5, 200 mM NaCl) in wells of high binding white polysterene 96-well plates (Corning). After an overnight protein binding incubation at 4° C., lysates are aspirated and wells are blocked for 1 h at 37° C. in TBST supplemented with 5% BSA. Plates are incubated with the primary antibodies anti-phospho-Tyrosine (Millipore, 4G10) diluted 1/15000 in TBST supplemented with 5% BSA for 1 h at room temperature. Plates are washed 3 times on a plate washer (SkanWasher, Molecular Devises), and incubated with the reporter antibody […] (Sigma) diluted 1/15000 in TBST supplemented with 5% BSA, for 1 h at room temperature. Plates are washed 3 times with TBST using on a plate washer and subsequently incubated with chemiluminescent substrate solution (ECL, Roche). Luminescence signal is captured on a Polar Star Optima apparatus (BMG LabTech).
Average values of the triplicate samples are used to prepare IC50 curves using a 4-parameter fit model. These curves are calculated using, for example, GraFit 5.0 software. For assay standardization purpose, an internal control is included on each experimental test plate.

| Compound | IC50 |
| --- | --- |
| COCCNCc1ccc(-c2cc3nccc(Oc4ccc(NC(=S)NC(=O)Cc5ccccc5)cc4F)c3s2)s1 | < 250 nM |
| COC[C@H](C)NCc1ccc(-c2cc3nccc(Oc4ccc(NC(=O)C5(C(=O)Nc6ccccc6)CC5)cc4F)c3s2)cc1 | < 250 nM |
| COCCNCCc1cccc(-c2cc3nccc(Oc4ccc(NC(=S)NC(=O)Cc5ccc(F)cc5)cc4F)c3s2)c1 | < 250 nM |
| COCCNCCn1cnc(-c2cc3nccc(Oc4ccc(NC(=S)NC(=O)Cc5ccccc5)cc4F)c3s2)c1 | < 250 nM |

Second part, the compound after the results:

| IC50 | Compound |
| --- | --- |
| < 250 nM | CSCCNCc1ccc(-c2cc3nccc(Oc4ccc(NC(=S)NC(=O)Cc5ccccc5)cc4F)c3s2)cc1 |
| < 250 nM | CSCCNCc1ccc(-c2cc3nccc(Oc4ccc(NC(=S)NC(=O)Cc5ccc(F)cc5)cc4F)c3s2)cc1 |

Biological target: recombinant human c-Met/HGF receptor (Homo sapiens, UniProt P08581)
Sequence (P08581 1078-1337): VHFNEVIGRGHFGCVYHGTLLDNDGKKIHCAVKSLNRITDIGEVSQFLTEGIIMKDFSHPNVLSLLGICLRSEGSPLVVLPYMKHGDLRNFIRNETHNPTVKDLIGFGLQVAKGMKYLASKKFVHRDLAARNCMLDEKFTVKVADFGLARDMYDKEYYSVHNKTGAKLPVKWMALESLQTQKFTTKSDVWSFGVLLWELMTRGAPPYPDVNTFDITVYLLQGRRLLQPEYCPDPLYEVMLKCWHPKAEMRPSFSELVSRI
Experiment: In vitro receptor tyrosine kinase assay (DELFIA), c-Met/HGF receptor
Settings: not given

| Compound | IC50 |
| --- | --- |
| COCCNCc1ccc(-c2cc3nccc(Oc4ccc(NC(=S)NC(=O)Cc5ccccc5)cc4F)c3s2)s1 | < 250 nM |
| COC[C@H](C)NCc1ccc(-c2cc3nccc(Oc4ccc(NC(=O)C5(C(=O)Nc6ccccc6)CC5)cc4F)c3s2)cc1 | < 250 nM |
| COCCNCCc1cccc(-c2cc3nccc(Oc4ccc(NC(=S)NC(=O)Cc5ccc(F)cc5)cc4F)c3s2)c1 | < 250 nM |
| COCCNCCn1cnc(-c2cc3nccc(Oc4ccc(NC(=S)NC(=O)Cc5ccccc5)cc4F)c3s2)c1 | < 250 nM |

Now from value to compound:

| IC50 | Compound |
| --- | --- |
| < 250 nM | CSCCNCc1ccc(-c2cc3nccc(Oc4ccc(NC(=S)NC(=O)Cc5ccccc5)cc4F)c3s2)cc1 |
| < 250 nM | CSCCNCc1ccc(-c2cc3nccc(Oc4ccc(NC(=S)NC(=O)Cc5ccc(F)cc5)cc4F)c3s2)cc1 |

— patent US8389541B2, “Inhibitors of protein tyrosine kinase activity” (MethylGene Inc., priority 2007, dated 2013)
